The source of these data is patent US7855292B2, “Sulfonamide compounds” (Janssen Pharmaceutica NV, priority 2004, dated 2010).

In one test the target is T1, CCK-1 receptor (Homo sapiens, UniProt P32238).
T1 construct: expressed in transfected cells; host or cells: CHO-K1
T1 sequence (P32238 1-428): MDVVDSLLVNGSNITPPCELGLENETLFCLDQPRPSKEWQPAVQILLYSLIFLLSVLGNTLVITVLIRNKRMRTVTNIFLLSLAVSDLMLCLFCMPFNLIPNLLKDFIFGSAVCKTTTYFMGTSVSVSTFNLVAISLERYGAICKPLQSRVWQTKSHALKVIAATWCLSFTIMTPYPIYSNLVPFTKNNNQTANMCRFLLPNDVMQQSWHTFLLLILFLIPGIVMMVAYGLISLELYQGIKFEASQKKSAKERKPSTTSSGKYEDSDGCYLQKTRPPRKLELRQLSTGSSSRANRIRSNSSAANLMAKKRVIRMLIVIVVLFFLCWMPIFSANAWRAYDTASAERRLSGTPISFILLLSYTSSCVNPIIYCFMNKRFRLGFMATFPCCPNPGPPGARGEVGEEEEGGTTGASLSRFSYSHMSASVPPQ
Put plainly: CCK1 binding assay ([125I]-BH-CCK-8S displacement, CHO-K1 membranes). The conditions noted are these: membranes of CHO-K1 cells stably transfected with the CCK-1 receptor; 20 pM [125I]-BH-CCK-8S; 0.3 μM PD-134,308 present; 60 min at 21±3° C.; read-out: CCK1 pKi (converted). Here is the method:
1. CCK1 Assay Development and Data Generation
CHO-K1 cells that had undergone stable transfection with the CCK-1 receptor were grown in DMEM supplemented with L-glutamine (2 mM), penicillin (50 units/mL) and streptomycin (50 μg/mL). Cells were cultured under continuous G418 selection (2 mM) and were harvested using a rubber cell scraper. CHO-K1 cells were sub-cultured a maximum of ten times before being reseeded from the original stocks.
Membranes were prepared from the stably transfected CHO-K1 cells. Frozen cell pellets (−40° C.) were thawed in 14 mL of buffer A (10 mM HEPES, 130 mM NaCl, 4.7 mM KCl, 5 mM MgCl, 1 mM EGTA and 15.4 mg/100 mL bacitracin at pH 7.2), adapted from Harper et al. (Br. J. Pharmacol. 1996, 118:1717-1726). The thawed pellets were homogenized using a Polytron PT-10 (7×1 s). The homogenates were centrifuged for 5 min at 1500 rpm (600×g), and the resulting pellets were discarded. The supernatants were re-centrifuged in order to collect the receptor-membrane pellets (25 min 15,000 rpm; 39,800×g), which were re-suspended in buffer A.
All assays were conducted in 96-well plates (GF/B millipore filter plates) using buffer A, with 0.3 μM PD-134,308, for the dilutions. The CCK-2 receptor ligand was included to eliminate the contribution of this receptor subtype to the binding. For the optimal cell number determination experiments 20 pM [^125I]-BH-CCK-8S (50 μL […] solution) was incubated with a range of cell concentrations ([…] to 12.5×10^5 cells/well) in a total volume of 150 μL. Total binding of [^125I]-BH-CCK-8S was determined in the presence of 15 μL of buffer A. Non-specific binding of [^125I]-BH-CCK-8S was determined in the presence of 15 μL of 100 μM 2-naphthalenesulphonyl L-aspartyl-(2-phenethyl)amide (2-NAP: see R. A. Hull et al. Br. J. Pharmacol. 1993, 108:734-740), a CCK-1 receptor selective antagonist that is structurally unrelated to the radioligand [^125I]-BH-CCK-8S. The assay preparation was incubated for 1 h at 21±3° C., and then the assay was terminated upon rapid filtration of the preparation under reduced pressure. The loaded filters were washed three times using undiluted PBS ([…]), and then the residues were transferred to 5 mL scintillation tubes. Bound radioactivity was determined using a gamma counter (count time=1 min). […] To validate the radioligand concentration and incubation time for the assay, saturation and kinetic binding studies were also conducted (see M. F. Morton, The Pharmacological Characterization of Cholecystokinin Receptors in the Human Gastrointestinal Tract. PhD Thesis, University of London, 2000). […] The assay was then terminated according to the procedure outlined above.
(§1) 3. Data Analysis for CCK1 and CCK2 Binding Assays
The pKi values were determined using the equation of Y.-C. Cheng and W. H. Prusoff (Biochem. Pharmacol., 1973, 22(23):3099-3108):
(§2) [formula] To circumvent problems associated with computer-assisted data analysis of compounds with low affinity, the data obtained in the current study were weighted according to a method described by Morton. In brief, 100% and 0% specific binding were defined independently using total binding and binding obtained in the presence of a high concentration of the reference antagonist, 2-NAP.

In the next test the target is T2, CCK2 receptor (Homo sapiens, UniProt P32239).
T2 construct: analyzed for ZFP expression as well as CCK2R induction upon addition of doxycycline to the culture medium; endogenous in cells
T2 sequence (P32239 1-447): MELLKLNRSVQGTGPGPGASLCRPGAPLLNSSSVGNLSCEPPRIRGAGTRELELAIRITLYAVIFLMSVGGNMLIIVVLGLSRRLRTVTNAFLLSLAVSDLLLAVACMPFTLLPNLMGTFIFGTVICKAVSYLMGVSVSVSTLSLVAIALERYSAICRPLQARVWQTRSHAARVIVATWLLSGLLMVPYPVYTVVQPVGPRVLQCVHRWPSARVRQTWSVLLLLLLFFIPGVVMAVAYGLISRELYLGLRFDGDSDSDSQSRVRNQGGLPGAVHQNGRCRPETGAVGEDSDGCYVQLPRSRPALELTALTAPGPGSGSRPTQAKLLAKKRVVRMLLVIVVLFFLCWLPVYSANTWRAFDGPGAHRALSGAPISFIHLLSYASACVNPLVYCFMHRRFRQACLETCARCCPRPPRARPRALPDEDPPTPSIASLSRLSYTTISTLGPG
Put plainly: CCK2 binding assay ([125I]-BH-CCK-8S displacement, HEKZFP membranes). The following applies: membranes of doxycycline-induced HEKZFP cells; 20 pM [125I]-BH-CCK-8S; 60 min at 21±3° C.; read-out: CCK2 pKi (converted). Here is the method: 2. CCK2 Assay Development and Data Generation
Zinc Finger Proteins (ZFP) specific for the CCK2R gene were identified by Sangamo Biosciences. The ZFP domain was fused with the herpes simplex virus VP16 activation domain, and the fusion protein was subsequently cloned into the pcDNA3 mammalian expression vector (Invitrogen, San Diego, Calif.). […] After 2 weeks of selection in culture medium containing […] Zeocin (Invitrogen), sixty drug-resistant stable clones were isolated and analyzed for ZFP expression as well as CCK2R induction upon addition of doxycycline to the culture medium.
HEKZFP cells were grown in DMEM supplemented with L-glutamine (2 mM), penicillin (50 units/mL) and streptomycin (50 μg/mL) and 10% FBS (v/v).
Membranes were prepared from the HEKZFP cells after induction. […] The thawed pellets were homogenized using a Polytron PT-10 (7×1 s). The homogenates were centrifuged for 5 min at 1500 rpm (600×g), and the resulting pellets were discarded. The supernatants were re-centrifuged in order to collect the receptor-membrane pellets (25 min 15,000 rpm; 39,800×g), which were re-suspended in buffer A.
The assay preparation was incubated for 1 h at 21±3° C., and then the assay was terminated by rapid filtration of the preparation under reduced pressure. The loaded filters were washed three times using undiluted PBS (100 μL), and then 100 μL of scintillation fluid was added to the filter plate. Bound radioactivity was determined using a Topcount (Packard BioScience, Meriden, Conn.) with a count time of 1 min. […] To validate the radioligand concentration and incubation time for the assay, saturation and kinetic binding studies were also conducted (see M. F. Morton, The Pharmacological Characterization of Cholecystokinin Receptors in the Human Gastrointestinal Tract. PhD Thesis, University of London, 2000). […] The assay was then terminated according to the procedure outlined above.
as §1
The pKi values were determined using the equation of Y.-C.
as §2

For the molecule `CC(CNC(=O)c1ccc(I)cc1NS(=O)(=O)c1cccc2nccnc12)c1ccc(Cl)c(Cl)c1` (racemic) [Example 61, (±)-N-[2-(3,4-Dichloro-phenyl)-propyl]-4-iodo-2-(quinoxaline-5-sulfonylamino)-benzamide], the Ki was 0.126 µM at CCK-1 receptor and 0.398 µM at CCK2 receptor.
Consider `O=C(N[C@@H](C(=O)O)[C@@H](O)c1ccc(Cl)c(Cl)c1)c1ccc(Cl)cc1NS(=O)(=O)c1cccc2nsnc12` (relative stereo) [Example 121, anti-2-[2-(Benzo[1,2,5]thiadiazole-4-sulfonylamino)-4-chloro-benzoylamino]-3-(3,4-dichloro-phenyl)-3-hydroxy-propionic acid], for which the results for the Ki at CCK-1 receptor and at CCK2 receptor were 0.126 µM and 0.501 µM, respectively.
In the case of `Cc1ccc(CC(NC(=O)c2ccc(I)cc2NS(=O)(=O)c2cccc3nccnc23)C(=O)O)cc1` (stereo in doubt) [Example 79, (S)-2-[4-Iodo-2-(quinoxaline-5-sulfonylamino)-benzoylamino]-3-p-tolyl-propionic acid], the Ki at CCK-1 receptor is 0.0631 µM; at CCK2 receptor, 1.26 µM.
For `O=C(N[C@@H](Cc1ccccc1)C(=O)O)c1cc(Cl)c(Cl)cc1NS(=O)(=O)c1cccc2nsnc12` [Example 3, 2-[2-(Benzo[1,2,5]thiadiazole-4-sulfonylamino)-4,5-dichloro-benzoylamino]-3-phenyl-propionic acid] the same measures were 1 µM and 0.0398 µM.
For `O=C(N[C@@H](Cc1cccc(Br)c1)C(=O)O)c1ccc(I)cc1NS(=O)(=O)c1cccc2nsnc12` [Example 4, (S)-2-[2-(Benzo[1,2,5]thiadiazole-4-sulfonylamino)-4-iodo-benzoylamino]-3-(3-bromo-phenyl)-propionic acid] the same measures were 0.631 µM and 0.00501 µM.
As for `CC(CNC(=O)c1ccc(Br)cc1NS(=O)(=O)c1cccc2nsnc12)c1ccc(Cl)c(Cl)c1` (stereo not shown) [Example 5, 2-(Benzo[1,2,5]thiadiazole-4-sulfonylamino)-4-bromo-N-[2-(3,4-dichloro-phenyl)-propyl]-benzamide], the values for the Ki at CCK-1 receptor and on CCK2 receptor were 0.0158 µM and 0.316 µM, respectively.
In the case of `COC(=O)[C@H](Cc1ccc(Br)s1)NC(=O)c1ccc(Cl)cc1NS(=O)(=O)c1cccc2nccnc12` [Example 8, (S)-3-(5-Bromo-thiophen-2-yl)-2-[4-chloro-2-(quinoxaline-5-sulfonylamino)-benzoylamino]-propionic acid methyl ester], the Ki on CCK-1 receptor was 3.16 µM; on CCK2 receptor it was 0.501 µM.
Consider `O=C(N[C@@H](Cc1ccc2ccccc2c1)C(=O)O)c1ccc(Cl)cc1NS(=O)(=O)c1cccc2nccnc12` [Example 9, (S)-2-[4-Chloro-2-(quinoxaline-5-sulfonylamino)-benzoylamino]-3-naphthalen-2-yl-propionic acid], for which the Ki is 0.158 µM at CCK-1 receptor and 0.398 µM at CCK2 receptor.
Turning to `NC(=O)[C@H](Cc1ccc(Cl)cc1)NC(=O)c1cc(Cl)c(Cl)cc1NS(=O)(=O)c1cccc2nsnc12` [Example 11, (S)-2-(Benzo[1,2,5]thiadiazole-4-sulfonylamino)-N-[1-carbamoyl-2-(4-chloro-phenyl)-ethyl]-4,5-dichloro-benzamide], the Ki at CCK-1 receptor was 0.398 µM; at CCK2 receptor it was 0.316 µM.
For `C[C@H](CN1C(=O)c2cc(Br)cc(NS(=O)(=O)c3cccc4nsnc34)c2C1=O)c1ccccc1` [Example 13, (S)-Benzo[1,2,5]thiadiazole-4-sulfonic acid [6-bromo-1,3-dioxo-2-(2-phenyl-propyl)-2,3-dihydro-1H-isoindol-4-yl]-amide] the same measures were 1.26 µM and 0.631 µM.
For `O=C(N[C@H](Cc1ccc(Cl)cc1)C(=O)O)c1cc(Cl)c(Cl)cc1NS(=O)(=O)c1cccc2nsnc12` [Example 14, (R)-2-[2-(Benzo[1,2,5]thiadiazole-4-sulfonylamino)-4,5-dichloro-benzoylamino]-3-(4-chloro-phenyl)-propionic acid] the same measures were 0.0126 µM and 0.316 µM.
For the molecule `O=C(N[C@H](Cc1ccc(Cl)cc1)C(=O)O)c1ccc(I)cc1NS(=O)(=O)c1cccc2nccnc12` [Example 15, (R)-3-(4-Chloro-phenyl)-2-[4-iodo-2-(quinoxaline-5-sulfonylamino)-benzoylamino]-propionic acid], the Ki at CCK-1 receptor is 0.0398 µM; on CCK2 receptor, 0.2 µM.
For `O=C(N[C@H](Cc1ccccc1)C(=O)O)c1ccc(I)cc1NS(=O)(=O)c1c(F)cccc1F` [Example 17, (R)-2-[2-(2,6-Difluoro-benzenesulfonylamino)-4-iodo-benzoylamino]-3-phenyl-propionic acid] the same measures were 0.0794 µM and 2.51 µM.
For `CN(CCc1ccccc1)C(=O)c1ccc(Br)cc1NS(=O)(=O)c1cccc2nsnc12` [Example 20, 2-(Benzo[1,2,5]thiadiazole-4-sulfonylamino)-4-bromo-N-methyl-N-phenethyl-benzamide] the same measures were 2 µM and 0.1 µM.
